The values below are quoted from earlier work in patent US20080124386A1, “APOPTOSIS-MIMICKING SYNTHETIC ENTITIES AND USE THEREOF IN MEDICAL TREATMENT” (Vasogen Ireland Limited, priority 2000, published 2008).

One data set has as its system spatial memory. The following applies: oral, 50 mg/day; compared with placebo.
A further data set relates to Alzheimer's disease. The following applies: oral, 300 mg/day; compared with placebo.

Turning to phosphatidylserine [PS], the “spatial memory in animal models” value in the data set on spatial memory is given as “statistically significant improvements”. In addition, in the data set on Alzheimer's disease, the “treatment of Alzheimer's disease in humans” value is reported as “statistically significant improvements”.
